Literature values, collected in patent US20090285878A1, “Compositions and methods for stabilizing liposomal drug formulations” (Tekmira Pharmaceuticals Corporation, priority 2004, published 2009).

Q: Which results are given for `CC[C@@]1(O)C(=O)OCc2c1cc1n(c2=O)Cc2cc3c(CN(C)C)c(O)ccc3nc2-1` [Topotecan]?
A: Lactone hydrolyzed (above pH 9): more than 95%; Open (carboxylate) form of lactone ring (below pH 4): no open form is present
